Experimental data reported in patent publication US5336673A, “3-substituted cephem compounds” (priority 1990, dated 1994).
In brackets after ≈: the same amount, converted by molar mass. Read-outs that look alike come from different tables or passages of the source.

Tests used:
Assay type in all cases: cell-based
[1] = system: Streptococcus pyogenes A 308; experiment: Antibacterial activity, MIC by Agar dilution method, standard test strain 1; settings: A308, 10^7 CFU/ml, 37° C., 18 hours
Method: (§1) The antibacterial activity was determined by an Agar dilution method as described below.
(§2) That is, the two-fold serial dilutions of the antibacterial compounds (1000 μg compound/ml) were prepared and dispersed in Muller Hinton Agar in a petri dish to a concentration of 100~0.002 μg/ml. The culture broths of standard test strains were inoculated on the medium to a concentration 10^7 CFU/ml, and incubated at 37° C. for 18 hours. The concentration of compounds(I) at which the strains were not grown was regarded as minimum inhibition concentration (MIC).
(§3) The results of antibacterial activity test of the representative examples of the compound (I) against 20 standard test strains shown in terms of MIC were indicated in Table 1.
1. Streptococcus pyogenes A 308

[2] = system: Streptococcus pyogenes A 77; experiment: Antibacterial activity, MIC by Agar dilution method, standard test strain 2; settings: A77, 10^7 CFU/ml, 37° C., 18 hours
Method: as §1, §2, §3
2. Streptococcus pyogenes A 77

[3] = system: Streptococcus faecium MD 86; experiment: Antibacterial activity, MIC by Agar dilution method, standard test strain 3; settings: Enterococcus faecium, MD86, 10^7 CFU/ml, 37° C., 18 hours
Method: as §1, §2, §3
3. Streptococcus faecium MD 86

[4] = system: Staphylococcus aureus SG 511; experiment: Antibacterial activity, MIC by Agar dilution method, standard test strain 4; settings: SG511, 10^7 CFU/ml, 37° C., 18 hours
Method: as §1, §2, §3
4. Staphylococcus aureus SG 511

[5] = system: Staphyloccus aureus 285; experiment: Antibacterial activity, MIC by Agar dilution method, standard test strain 5; settings: 10^7 CFU/ml, 37° C., 18 hours
Method: as §1, §2, §3
5. Staphyloccus aureus 285

[6] = system: Staphylococcus aureus 503; experiment: Antibacterial activity, MIC by Agar dilution method, standard test strain 6; settings: 10^7 CFU/ml, 37° C., 18 hours
Method: as §1, §2, §3
6. Staphylococcus aureus 503

[7] = system: Escherichia coli O 55; experiment: Antibacterial activity, MIC by Agar dilution method, standard test strain 7
Method: as §1, §2, §3

[8] = system: Escherichia coli DC O; experiment: Antibacterial activity, MIC by Agar dilution method, standard test strain 8
Method: as §1, §2, §3

[9] = system: Escherichia coli DC 2; experiment: Antibacterial activity, MIC by Agar dilution method, standard test strain 9; settings: DC2; Escherichia coli DC 2; 10^7 CFU/ml, 37° C., 18 hours; read-out: MIC
Method: as §1, §2, §3

[10] = system: Escherichia coli TEM; experiment: Antibacterial activity, MIC by Agar dilution method, standard test strain 10; settings: Escherichia coli TEM; 10^7 CFU/ml, 37° C., 18 hours; read-out: MIC
Method: as §1, §2, §3

[11] = system: Escherichia coli 1507E; experiment: Antibacterial activity, MIC by Agar dilution method, standard test strain 11; settings: Escherichia coli 1507E; 10^7 CFU/ml, 37° C., 18 hours; read-out: MIC
Method: as §1, §2, §3

[12] = system: Pseudomonas aeruginosa 9027; experiment: Antibacterial activity, MIC by Agar dilution method, standard test strain 12; settings: 10^7 CFU/ml, 37° C., 18 hours
Method: as §1, §2, §3
12. Pseudomonas aeruginosa 9027

[13] = system: Pseudomonas aeruginosa 1592E; experiment: Antibacterial activity, MIC by Agar dilution method, standard test strain 13; settings: 10^7 CFU/ml, 37° C., 18 hours
Method: as §1, §2, §3
13. Pseudomonas aeruginosa 1592E

[14] = system: Pseudomonas aeruginosa 1771; experiment: Antibacterial activity, MIC by Agar dilution method, standard test strain 14; settings: 10^7 CFU/ml, 37° C., 18 hours
Method: as §1, §2, §3
14. Pseudomonas aeruginosa 1771

[15] = system: Pseudomonas aeruginosa 1771M; experiment: Antibacterial activity, MIC by Agar dilution method, standard test strain 15; settings: 18 h
Method: as §1, §2, §3
15. Pseudomonas aeruginosa 1771M

[16] = system: Salmonella typhimurium; experiment: Antibacterial activity, MIC by Agar dilution method, standard test strain 16; settings: Salmonella enterica, 10^7 CFU/ml, 37° C., 18 hours
Method: as §1, §2, §3
16. Salmonella typhimurium

[17] = system: Klebsiella oxytoca 1082E; experiment: Antibacterial activity, MIC by Agar dilution method, standard test strain 17; settings: 10^7 CFU/ml, 37° C., 18 hours
Method: as §1, §2, §3

[18] = system: Klebsiella aerogenes 1522E; experiment: Antibacterial activity, MIC by Agar dilution method, standard test strain 18; settings: Klebsiella aerogenes 1522E; 10^7 CFU/ml, 37° C., 18 hours; read-out: MIC
Method: as §1, §2, §3
18. Klebsiella aerogenes 1522E

[19] = system: Enterobacter cloacae P99; experiment: Antibacterial activity, MIC by Agar dilution method, standard test strain 19; settings: P99, 18 h
Method: as §1, §2, §3
19. Enterobacter cloacae P99

[20] = system: Enterobacter cloacae 1321E; experiment: Antibacterial activity, MIC by Agar dilution method, standard test strain 20; settings: Enterobacter cloacae 1321E; 10^7 CFU/ml, 37° C., 18 hours; read-out: MIC
Method: as §1, §2, §3
20. Enterobacter cloacae 1321E

[21] = system: Gram-positive strains as well as Gram-negative strains including Pseudomonas; experiment: Antibacterial activity (summary in words); settings: Gram-positive and Gram-negative strains
Method: as §1, §2

[22] = Escherichia coli DC O, 10^7 CFU/ml, 37° C., 18 hours, read-out: MIC
[23] = O55, Escherichia coli O 55, 10^7 CFU/ml, 37° C., 18 hours, read-out: MIC

| SMILES | MIC [1] | MIC [2] | MIC [3] | MIC [4] | MIC [5] | MIC [6] | MIC [8, 22] | MIC [9] | MIC [10] | MIC [11] | MIC [12] | MIC [13] | MIC [14] | MIC [15] | MIC [16] | MIC [17] | MIC [18] | MIC [19] | MIC [20] | antibacterial activity (in words) [21] | also measured |
| --- | --- | --- | --- | --- | --- | --- | --- | --- | --- | --- | --- | --- | --- | --- | --- | --- | --- | --- | --- | --- | --- |
| CO/N=C(\C(=O)N[C@@H]1C(=O)N2C(C(=O)[O-])=C(C[N+]3(N)CCc4ccccc4C3)CS[C@H]12)c1csc(N)n1 (stereo partly drawn) [Example 5, (6R,7R)-7-[(Z)-2-(2-aminothiazol-4-yl)-2-methoxyiminoacetamido]-3-[(2-amino-1,2,3,4-tetrahydroisoquinolin-2-ium)methyl]-ceph-3-em-4-carboxylate] | 0.049 µg/mL (≈ 0.0901 µM) | 0.013 µg/mL (≈ 0.0239 µM) | 50 µg/mL (≈ 92 µM) | 1.56 µg/mL (≈ 2.88 µM) | 6.25 µg/mL (≈ 11.5 µM) | 0.781 µg/mL (≈ 1.44 µM) | 0.391 µg/mL (≈ 0.719 µM) | 0.781 µg/mL (≈ 1.44 µM) | 0.781 µg/mL (≈ 1.44 µM) | 0.781 µg/mL (≈ 1.44 µM) | 50 µg/mL (≈ 92 µM) | 50 µg/mL (≈ 92 µM) | 50 µg/mL (≈ 92 µM) | 1.56 µg/mL (≈ 2.88 µM) | 0.781 µg/mL (≈ 1.44 µM) | 12.5 µg/mL (≈ 23 µM) | 0.013 µg/mL (≈ 0.0239 µM) | 100 µg/mL (≈ 184 µM) | 0.013 µg/mL (≈ 0.0239 µM) | excellent antibacterial activity | MIC ([7]; Escherichia coli, O55, 18 h): 0.391 µg/mL (≈ 0.719 µM) |
| CO/N=C(\C(=O)N[C@@H]1C(=O)N2C(C(=O)[O-])=C(CN3CC[N+](C)(N)CC3)CS[C@H]12)c1csc(N)n1 [Example 11, (6R,7R)-7-[(Z)-2-(2-aminothiazol-4-yl)-2-methoxyiminoacetamido]-3-[(1-amino-1-methyl-4-piperazinium)methyl]-ceph-3-em-4-carboxylate] | 0.013 µg/mL (≈ 0.0255 µM) | 0.007 µg/mL (≈ 0.0137 µM) | > 100 µg/mL | 1.56 µg/mL (≈ 3.06 µM) | 12.5 µg/mL (≈ 24.5 µM) | 0.781 µg/mL (≈ 1.53 µM) | – | 0.781 µg/mL (≈ 1.53 µM) | 0.391 µg/mL (≈ 0.766 µM) | 0.781 µg/mL (≈ 1.53 µM) | 50 µg/mL (≈ 97.9 µM) | 50 µg/mL (≈ 97.9 µM) | 25 µg/mL (≈ 49 µM) | 1.56 µg/mL (≈ 3.06 µM) | 0.391 µg/mL (≈ 0.766 µM) | 6.25 µg/mL (≈ 12.2 µM) | 0.391 µg/mL (≈ 0.766 µM) | 100 µg/mL (≈ 196 µM) | 0.195 µg/mL (≈ 0.382 µM) | excellent antibacterial activity | MIC [7, 23]: 0.195 µg/mL (≈ 0.382 µM); MIC ([8]; Escherichia coli, 18 h): 0.781 µg/mL (≈ 1.53 µM) |
| CO/N=C(\C(=O)N[C@@H]1C(=O)N2C(C(=O)[O-])=C(C[n+]3cn(N)c4ccccc43)CS[C@H]12)c1csc(N)n1 [Example 19, (6R,7R)-7-[(Z)-2-(2-aminothiazol-4-yl)-2-methoxyiminoacetamido]-3-[(1-aminobenzimidazol-3-ium)methyl]-ceph-3-em-4-carboxylate] | 0.013 µg/mL (≈ 0.0246 µM) | 0.007 µg/mL (≈ 0.0132 µM) | > 100 µg/mL | 0.781 µg/mL (≈ 1.48 µM) | 0.781 µg/mL (≈ 1.48 µM) | 0.391 µg/mL (≈ 0.74 µM) | 0.391 µg/mL (≈ 0.74 µM) | 0.391 µg/mL (≈ 0.74 µM) | 0.391 µg/mL (≈ 0.74 µM) | 0.391 µg/mL (≈ 0.74 µM) | 50 µg/mL (≈ 94.6 µM) | 25 µg/mL (≈ 47.3 µM) | 12.5 µg/mL (≈ 23.6 µM) | 0.781 µg/mL (≈ 1.48 µM) | 0.195 µg/mL (≈ 0.369 µM) | 3.12 µg/mL (≈ 5.91 µM) | 0.195 µg/mL (≈ 0.369 µM) | > 100 µg/mL | 0.195 µg/mL (≈ 0.369 µM) | excellent antibacterial activity | MIC ([7]; Escherichia coli, O55, 18 h): 0.098 µg/mL (≈ 0.185 µM) |
| CO/N=C(\C(=O)N[C@@H]1C(=O)N2C(C(=O)[O-])=C(C[n+]3nn(N)c4ccccc43)CS[C@H]12)c1nsc(N)n1 [Example 85, (6R,7R)-7-[(Z)-2-(5-amino-1,2,4-thiadiazol-3-yl)-2-methoxyiminoacetamido]-3-[(1-aminobenzotriazol-3-ium)methyl]-ceph-3-em-4-carboxylate] | 0.007 µg/mL (≈ 0.0132 µM) | 0.004 µg/mL (≈ 0.00754 µM) | 100 µg/mL (≈ 188 µM) | 0.391 µg/mL (≈ 0.737 µM) | 1.56 µg/mL (≈ 2.95 µM) | 0.391 µg/mL (≈ 0.737 µM) | 0.025 µg/mL (≈ 0.0471 µM) | 0.025 µg/mL (≈ 0.0471 µM) | 0.025 µg/mL (≈ 0.0471 µM) | 0.049 µg/mL (≈ 0.0924 µM) | 3.12 µg/mL (≈ 5.89 µM) | 3.12 µg/mL (≈ 5.89 µM) | 1.56 µg/mL (≈ 2.95 µM) | 1.56 µg/mL (≈ 2.95 µM) | 0.195 µg/mL (≈ 0.368 µM) | 0.781 µg/mL (≈ 1.47 µM) | 0.049 µg/mL (≈ 0.0924 µM) | 25 µg/mL (≈ 47.1 µM) | 0.007 µg/mL (≈ 0.0132 µM) | – | MIC [7, 23]: 0.007 µg/mL (≈ 0.0132 µM) |
| CO/N=C(\C(=O)N[C@@H]1C(=O)N2C(C(=O)[O-])=C(C[N+]3(N)CCCC3)CS[C@H]12)c1csc(N)n1 [Example 1, (6R,7R)-7-[(Z)-2-(2-aminothiazol-4-yl)-2-methoxyiminoacetamido]-3-(1-aminopyrrolidiniummethyl)ceph-3-em-4-carboxylate] | 0.025 µg/mL (≈ 0.0519 µM) | 0.025 µg/mL (≈ 0.0519 µM) | > 100 µg/mL | 6.26 µg/mL (≈ 13 µM) | 12.5 µg/mL (≈ 26 µM) | 1.56 µg/mL (≈ 3.25 µM) | 0.195 µg/mL (≈ 0.405 µM) | 0.391 µg/mL (≈ 0.812 µM) | 0.391 µg/mL (≈ 0.812 µM) | 0.391 µg/mL (≈ 0.812 µM) | 100 µg/mL (≈ 208 µM) | 100 µg/mL (≈ 208 µM) | 50 µg/mL (≈ 104 µM) | 3.12 µg/mL (≈ 6.49 µM) | 0.781 µg/mL (≈ 1.62 µM) | 12.5 µg/mL (≈ 26 µM) | 0.195 µg/mL (≈ 0.405 µM) | > 100 µg/mL | 0.098 µg/mL (≈ 0.204 µM) | excellent antibacterial activity | MIC ([7]; Escherichia coli, O55, 18 h): 0.195 µg/mL (≈ 0.405 µM) |
